# Measured values taken from PMC4592935, “Application of Molecular Modeling to Development of New Factor Xa Inhibitors” (BioMed Research International, 2015).
# Experiments:
# [1] = target: T1, Human factor Xa (Homo sapiens, UniProt P00742); assay: Inhibition of factor Xa hydrolysis of chromogenic substrate S2765 in buffer; assay type: biochemical; conditions: for IC50 / Inhibition of hydrolysis rate specific to the factor Xa substrate in the buffer system IC50: substrate S2765 250 μM, Xa 0.5 nM, 20 mM HEPES pH 8.0; for IC50: read-out: Inhibition of hydrolysis rate specific to the factor Xa substrate in the buffer system IC50; for inhibitory activity against factor Xa (in words): in vitro, chromogenic substrate hydrolysis
# T1 construct: It consists of light (139 residues) and heavy (303 residues) chains linked by a disulfide bridge; purchased Hematologic Technologies Inc. (USA)
# T1 sequence (P00742 235-488 limits assumed): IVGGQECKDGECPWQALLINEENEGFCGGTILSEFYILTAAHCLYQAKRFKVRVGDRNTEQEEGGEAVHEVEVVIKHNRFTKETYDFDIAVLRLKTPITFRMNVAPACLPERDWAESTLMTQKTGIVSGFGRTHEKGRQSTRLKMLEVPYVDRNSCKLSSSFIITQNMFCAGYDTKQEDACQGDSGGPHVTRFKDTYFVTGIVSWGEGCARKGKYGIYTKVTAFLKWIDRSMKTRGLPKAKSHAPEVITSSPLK
# T1 sequence (P00742 41-179 partner limits assumed): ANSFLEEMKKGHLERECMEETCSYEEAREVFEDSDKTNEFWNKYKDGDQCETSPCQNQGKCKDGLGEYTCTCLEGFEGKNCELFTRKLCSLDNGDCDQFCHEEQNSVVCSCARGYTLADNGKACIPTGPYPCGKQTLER
# Protocol: Human factor Xa was obtained from Hematologic Technologies Inc. (USA). The Xa-specific chromogenic substrate S2765 (Z-D-Arg-Gly-Arg-pNA·2HCl) was purchased from Chromogenix (USA). All other chemicals were of reagent and analytical grade.
# The kinetics of factor Xa inhibition was determined from the hydrolysis reaction of a specific substrate by the enzyme in the presence of tested substances. The chromogenic substrate S2765 (Z-D-Arg-Gly-Arg-pNA·2HCl, Chromogenix, Instrumentation Laboratory Company, Lexington, MA 02421, USA) was used for registering accumulation of p-nitroaniline as a colored product by spectrophotometer.
# Plate wells were filled with 20 mM HEPES (pH 8.0) containing 140 mM NaCl and 0.1% polyethylene glycol (molecular weight 6000 Da). Thereafter, the substrate was sequentially added to each well (final concentration, 250 μM), followed by the substance being tested (to a final concentration that was varied) and Xa (final concentration, 0.5 nM). The hydrolysis rate was monitored spectrophotometrically at 405 nm (absorption maximum of the reaction product p-nitroaniline).
# The initial rate was determined as the slope of the linear part of the kinetic curve over the first 10 to 20 min of measurement. The inhibitory effect was expressed as the percentage of reduction of the initial hydrolysis rate. The reaction rate in the absence of any inhibitor was taken as 100%. Each result is the mean of two parallel determinations. The inhibitor concentration was determined decreasing hydrolysis rate to 50% (IC50). […] Graphs of optical density against time were plotted.
# [2] = Solubility as observed during factor Xa testing; assay type: physicochemical; conditions: limited the inhibition that could be achieved
# Text: According to the results of our molecular modeling with SOL and DISCORE programs 17 compounds have been selected and investigated in the frame of in vitro experiments.
Compound,IC50 [1] [µM],further results
CC1CC2(CCCC2)N2C(=O)C3(NCCc4c3[nH]c3ccccc43)c3cc(F)cc1c32 (stereo not drawn) [VGY-0041455],40,–
CC1(c2ccc(Cl)cc2)CC(C)(C)N2C(=O)/C(=N/c3ccc(Oc4ccccc4)cc3)c3cccc1c32 (stereo not drawn) [VGY-0027889],20.6,–
"COc1ccc(C2CC(=O)c3cnc(Nc4nc(C)c5cc(C)c(C)cc5n4)nc3C2)cc1 (stereo not drawn) [VGY-0035262, 7-(4-methoxyphenyl)-2-[(4,6,7-trimethylquinazolin-2-yl)amino]-7,8-dihydroquinazolin-5(6H)-one]",3.1,–
Clc1ccc2nc(Nc3nc(-c4ccccc4)c4ccccc4n3)nc(-c3ccccc3)c2c1 [VGY-0018863],10,–
Cc1ccc2nc(Nc3nc(-c4cnc(N5CCCCC5)nc4C)cc(=O)[nH]3)nc(C)c2c1 [VGY-0163641],12,–
O=C1CC(c2ccco2)Cc2nc(N3CCN(Cc4ccc5c(c4)OCO5)CC3)ncc21 (stereo not drawn) [VGY-0038035],–,inhibition at 51 µM ([1]; at concentration of 51 μM): 34%; inhibitory activity against factor Xa (in words) [1]: weakly inhibited; Inhibition of hydrolysis rate specific to the factor Xa substrate in the buffer system IC50 [1]: Weakly inhibited; solubility (in words) [2]: poor solubility
"CC1=CC(C)(C)N2C(=O)C(=C3SC(=S)NC3=O)c3cc(OC(=O)C=Cc4cccc([N+](=O)[O-])c4)cc1c32 [VGY-0018989, 4,4,6-trimethyl-2-oxo-1-(4-oxo-2-thioxo-1,3-thiazolidin-5-ylidene)-1,2-dihydro-4H-pyrrolo[3,2,1-ij]quinolin-8-yl-3-(3-nitrophenyl)prop-2-enoate]",1.8,–
"COc1cccc(NC(=O)c2nnc3c(-c4ccc(Br)cc4)c(C)nn3c2C)c1 [VGY-0101011, 8-(4-bromophenyl)-N-(3-methoxyphenyl)-4,7-dimethylpyrazolo[5,1-c][1,2,4]triazine-3-carboxamide]",2,–
Cc1nc(N2CCN(C)CC2)[nH]c(=O)c1Cc1ccc(C(C)C)cc1 [VGY-0039772],–,inhibitory activity against factor Xa (in words) [1]: did not show any inhibitory activity; Inhibition of hydrolysis rate specific to the factor Xa substrate in the buffer system IC50 [1]: Not inhibited
"6-[(1,3-benzothiazol-2-ylthio)methyl]-2-[(5,6-dimethylquinazolin-2-yl)amino]pyrimidin-4(3H)-one [VGY-0006889]",2.3,–
CN1CCN(C2CC(=O)N(c3ccc(Oc4ccccc4)cc3)C2=O)CC1 (stereo not drawn) [VGY-0017263],–,inhibitory activity against factor Xa (in words) [1]: did not show any inhibitory activity; Inhibition of hydrolysis rate specific to the factor Xa substrate in the buffer system IC50 [1]: Not inhibited
COc1cc2c3c(c1)-c1c(sn(-c4ccc(Oc5ccc(Cl)cc5)cc4)c1=S)C(C)(C)N3C(=O)C2=O [VGY-0018521],6.3,–
CCOc1ccc(N2CN(CCCN3CCOCC3)Cn3c2nc(C)c(C)c3=O)cc1 [VGY-0160076],–,inhibitory activity against factor Xa (in words) [1]: did not show any inhibitory activity; Inhibition of hydrolysis rate specific to the factor Xa substrate in the buffer system IC50 [1]: Not inhibited
Cc1cc2nc(Nc3ncc4c(n3)CC(c3cccs3)CC4=O)nc(C)c2cc1C (stereo not drawn) [VGY-0037900],10,–
Cc1ccc(C)c(N2C(=O)CC(N3CCN(Cc4ccc5c(c4)OCO5)CC3)C2=O)c1 (stereo not drawn) [VGY-0015091],–,inhibitory activity against factor Xa (in words) [1]: did not show any inhibitory activity; Inhibition of hydrolysis rate specific to the factor Xa substrate in the buffer system IC50 [1]: Not inhibited
O=C1CC(c2cccc(Cl)c2)Cc2nc(N3CCN(Cc4ccc5c(c4)OCO5)CC3)ncc21 (stereo not drawn) [VGY-0037972],5,–
CC1(c2ccc(Cl)cc2)CC(C)(C)N(C(=O)CSc2ccc(Cl)cc2)c2ccccc21 (stereo not drawn) [VGY-0016013],19,–
